Several values for one entry are separate records, joined by “and”; a condition that tells them apart may be missing. Identical values can stand only once. Like-named read-outs stand apart in the source and are kept apart here.
Key:
Huh7-J20 cells [1] = system: Huh7-J20 cells
Description: (§3) All the drugs were tested starting from the concentration of 30 μM with 3-fold dilutions.
(§4) Huh7, Huh7-J20 and Huh7-J17 cells were tested for viability in the same conditions described for antiviral assays. Cells grown in a 96-well tissue culture plate in the presence of the drugs or DMSO control were incubated with the WST-1 reagent (Roche) for 3 h as per the manufacturer’s protocol. Cell viability was obtained reading absorbance at 450 nm with PHERAstar (BMG Labtech).

HCVcc gt 2a strain JFH-1 [2] = assay: HCVcc JFH-1 infection of Huh7-J20 reporter cells, second protocol (full life cycle), SEAP dose-response; type: cell-based, Hepatitis C Virus; conditions: JFH-1 HCVcc gt2a, 3 d post-infection
[3] = Cell viability assay (WST-1); conditions: human, Huh7-J20 cells
Description: as §3, §4

HCVcc gt 2a strain JFH-1 [4] = assay: HCVcc entry model (Protocol 1: drug only during pre-treatment and 3 h infection), SEAP; type: cell-based, Hepatitis C Virus; conditions: 10 μM, 1 h pre-treatment + 3 h infection, then 72 h without drug
Description: (§1) Reagents and conditions: a) K2CO3, DMF, room temperature, 24 h; b) MeI, NaH, DMF, 0 °C, 4 h. (B,C) Antiviral activity on HCVcc and cell viability. […] Then, inoculum was removed and cells re-fed with fresh medium. After 72 h the infected cell medium was collected and inhibitory effect was determined by measuring SEAP activity (top). Cell viability analysis was performed following same conditions with no viral infection (bottom). The values of DMSO-treated cells are expressed as 100% and those of the drug-treated cells as relative to this DMSO control. Error bars indicate standard error of the means for 3 experiments. (C) Huh7-J20 cells were infected for 3 h with JFH-1 and then treated for 3 d with drugs (10 μM) (post-entry, top) or infected for 3 h in the presence of the drugs, after a pretreatment of 1 h, and then incubated for 3 d maintaining drugs in the medium (full life cycle, centre). SEAP assay was performed on infected cell medium to determine antiviral activity. Data are presented as in (B) above. Cell viability was performed following full life cycle protocol (bottom).
(§2) To assess the effect of compounds on HCV infection, we used three protocols: Protocol 1 where Huh7-J20[23] cells were pre-treated for 1 h and exposed to the cell culture infectious HCV (HCVcc) gt 2a strain JFH-1 in the presence of 10 μM drug or equivalent DMSO (as a vehicle control) for 3 h. […]

[5] = system: gt3a S52-WT-∆N sub-genomic replicon; assay: gt3a sub-genomic replicon dose-response; type: cell-based, Hepatitis C Virus; conditions: Huh7.5-SEC14L2 cells electroporated with S52-WT-∆N RNA, 72 h, luciferase
[6] = system: gt1b (isolate Con1) subgenomic I389/NS3-3′/LucUbiMeo/ET replicon; assay: gt1b sub-genomic replicon dose-response; type: cell-based, Hepatitis C Virus; conditions: Huh7 cells stably harbouring the Con1 replicon, 72 h, luciferase
HCVcc gt 2a strain JFH-1 [7] = assay: HCVcc post-entry model (Protocol 3: drug added after 3 h infection), SEAP; type: cell-based, Hepatitis C Virus; conditions: 10 μM, 3 d
Description: as §1, §2

[8] = system: SGR-JFH-luc sub-genomic replicon; type: cell-based, Hepatitis C Virus
HCVcc JFH-1DSGCSL = assay: Viral RNA quantification after infection with adaptive mutant JFH-1DSGCSL (Protocol 3), RT-qPCR; type: cell-based, Hepatitis C Virus; conditions: 10 μM, Huh7 cells, Protocol 3, 72 h post-infection
Description: To further confirm antiviral activity, we tested Z385, Z387, Z400, and Z401 on a cell culture adaptive derivative HCV JFH-1DSGCSL strain that consistently replicates to high titres. Huh7 cells were infected with HCVcc JFH-1DSGCSL in the presence of drugs as per Protocol 3 described above and RNA was collected 72 h post-infection. Total RNA and the viral RNA were quantified as above.
Figure 5 Antiviral activity on cell-culture adaptive mutant JFH-1DSGCSL. Huh7 cells were infected following the third protocol with adaptive mutant virus and incubated for 3 d with drugs at the concentration of 10 μM. Viral RNA levels and relative SEAP activity were measured as previously described.
Huh7 Lunet-CD81 cells and their control Huh7L- H/EF cells were electroporated with 5 μg of JFH-1 RNA, seeded with drugs in a 12-well tissue culture dish and incubated for 3 d. Cellular RNA was isolated using TRI Reagent (Sigma) following manufacturer’s protocol. RNA quantification from the released viral particles was performed as below following digestion of infected cell medium with RNAse A for 2 h and RNA extraction using the RNeasy kit (Qiagen). HCV RNA quantification was carried out by RT-qPCR using TaqMan probes as reported. Briefly, 250 ng of total RNA were reverse transcribed to obtain cDNA in a 20 μl reaction using TaqMan Reverse Transcription Reagents (Life Technologies) with random hexamers, following manufacturer’s protocol. Reverse transcription was performed at 48 °C for 30 min, followed by 5 min at 85 °C. The qPCR was performed with 1.5 μl of cDNA in a 15 μl reaction mixture (TaqMan Fast Universal PCR Master Mix; Life Technologies) with 250 nM of Fw_primer (5′- […]-3′), 250 nm of Rev_primer (5′-[…]-3′) and 250 nM of TaqMan MGB (minor-groove binding) probe labelled with 6-carboxyfluorescin (5′-FAM-[…]-MGB-3′). Samples were placed in an ABI Fast 7500 instrument (Life Technologies) and were amplified using the following parameters: 95 °C for 5 minutes with cycling parameters set to 95 °C for 3 s and 60 °C for 30 s for 40 cycles. Absolute quantification was carried out using linear regression on a standard curve based on pJFH-1 serial dilution.

Huh7-J20 cells [9] = conditions: cited from earlier work
HCVcc gt 2a strain JFH-1 [10] = system: HCVcc gt 2a strain JFH-1; design: method as in Iro et al.[23]; conditions: Huh7-J20 reporter cells; ref Iro et al.[23]; cited from earlier work

Structure (SMILES) | CC50 (Huh7-J20 cells [1]) [µM] | IC50 (HCVcc gt 2a strain JFH-1 [2]) | other results
O=C(Cn1c(=O)ccn(CCCCCOc2cccc(Br)c2)c1=O)Nc1ccc(Oc2ccccc2)cc1 [Z421] | 44.6 | 1.16 µM | 
O=C(Cn1c(=O)ccn(CCCCCOc2ccc(Br)cc2)c1=O)Nc1ccc(Oc2ccccc2)cc1 [Z263] |  |  | IC50 (HCVcc gt 2a strain JFH-1 [2]; Hepatitis C virus, 72 h): 3.1 µM; CC50 at 3 d [3]: 56.3 µM
O=C(Cn1c(=O)c(I)cn(CCCCCOc2ccc(Br)cc2)c1=O)Nc1ccc(Oc2ccccc2)cc1 [Z439] | 29.7 | 3.72 µM | 
O=C(Cn1c(=O)ccn(CCCCOc2ccc(Br)cc2)c1=O)Nc1ccc(Oc2ccccc2)cc1 [Z397] | 61.1 | 2.95 µM | 
O=C(Cn1c(=O)ccn(CCCCCOc2ccc(Br)cc2)c1=O)Nc1ccc(Oc2ccc(F)cc2)cc1 [Z414] | 30.5 | 0.627 µM | 
O=C(Cn1c(=O)ccn(CCCCOCc2ccc(Br)cc2)c1=O)Nc1ccc(Oc2ccccc2)cc1 [Z432] | 19.2 | 1.29 µM | increase in cytotoxicity compared to Z263 (Huh7-J20 cells [1]): ~3 fold
Cc1ccc(Oc2ccc(NC(=O)Cn3c(=O)ccn(CCCCCOc4ccc(Br)cc4)c3=O)cc2)cc1 [Z413] | 27.4 | 0.315 µM | 
O=C(Cn1c(=O)ccn(CCCCCOc2ccc(Br)cc2)c1=O)Nc1ccc(OCc2ccccc2)cc1 [Z377] | 18.4 | 2.98 µM | 
N#Cc1ccc(OCCCCCn2ccc(=O)n(CC(=O)Nc3ccc(Oc4ccccc4)cc3)c2=O)cc1 [Z434] | 10.5 | 1.85 µM | 
O=C(Cn1c(=O)ccn(CCCCCCCCOc2ccc(Br)cc2)c1=O)Nc1ccc(Oc2ccccc2)cc1 [Z401] | 22.6 | 0.092 µM and 0.0924 µM | inhibition of virus infection (HCVcc entry) relative to DMSO (HCVcc gt 2a strain JFH-1 [4]): 80%; IC50 [5]: 0.69 µM; IC50 [6]: 2.2 µM; antiviral activity post-entry (HCVcc gt 2a strain JFH-1 [7]): strongly effective post-entry; antiviral activity, short treatment, 48 h post transfection [8]: 50%; reduction of total viral RNA levels (HCVcc JFH-1DSGCSL): 90%
CN(C(=O)Cn1c(=O)ccn(CCCCCOc2ccc(Br)cc2)c1=O)c1ccc(Oc2ccccc2)cc1 [Z431] |  |  | IC50 (HCVcc gt 2a strain JFH-1 [2]; Hepatitis C virus, 72 h): 0.5 µM; CC50 at 3 d [3]: 2.67 µM
O=C(Cn1c(=O)ccn(CCCCCOc2ccc(Br)cc2)c1=O)Nc1ccc(Cc2ccccc2)cc1 [Z387] | 132 | 0.712 µM | IC50 [5]: 0.94 µM; IC50 [6]: 23.3 µM; reduction of total viral RNA levels (HCVcc JFH-1DSGCSL): 90%
O=C(Cn1c(=O)ccn(CCCCCOc2ccccc2)c1=O)Nc1ccc(Oc2ccccc2)cc1 [Z436] | 13 | 3.62 µM | 
Cc1cn(CCCCCOc2ccc(Br)cc2)c(=O)n(CC(=O)Nc2ccc(Oc3ccccc3)cc2)c1=O [Z376] | 69.2 |  | 
O=C(Cn1c(=O)ccn(CCCCCCc2ccccc2)c1=O)Nc1ccc(Oc2ccccc2)cc1 [Z437] | 14.7 | 2.93 µM | 
O=C(Cn1c(=O)ccn(CCCCCCOc2ccc(Br)cc2)c1=O)Nc1ccc(Oc2ccccc2)cc1 [Z400] | 66.5 | 0.243 µM | IC50 [5]: 1.1 µM; IC50 [6]: 12.6 µM; reduction of total viral RNA levels (HCVcc JFH-1DSGCSL): 90%
C[C@@]1(O)[C@H](O)[C@@H](CO)O[C@H]1n1cnc2c(N)ncnc21 [2′-C-methyladenosine] |  |  | CC50 (Huh7-J20 cells [9]): > 30 µM; IC50 (HCVcc gt 2a strain JFH-1 [10]): 2 µM
O=C(Cn1c(=O)ccn(CCCCCOc2ccc(-c3ccccc3)cc2)c1=O)Nc1ccc(Oc2ccccc2)cc1 [Z438] | 9.6 | 1.74 µM | 
O=C(Cn1c(=O)ccn(Cc2ccccc2)c1=O)Nc1ccc(Oc2ccccc2)cc1 [Z176] |  |  | IC50 (HCVcc gt 2a strain JFH-1 [2]; Hepatitis C virus, 72 h): 1.34 µM; CC50 at 3 d [3]: 17.6 µM
O=C(Cn1c(=O)ccn(CCCCCOc2ccc(Br)cc2)c1=O)Nc1ccc(Oc2ccc(Cl)cc2)cc1 [Z385] | 59.2 | 0.585 µM | IC50 [5]: 0.66 µM; IC50 [6]: 6.9 µM; reduction of total viral RNA levels (HCVcc JFH-1DSGCSL): 90%
O=C(Cn1c(=O)ccn(CCCCCOc2ccc(Br)cc2)c1=O)Nc1ccc(C(=O)c2ccccc2)cc1 [Z430] | 11.5 | 0.941 µM | 

Source: publication PMC4942610, “Exploration of acetanilide derivatives of 1-(ω-phenoxyalkyl)uracils as novel inhibitors of Hepatitis C Virus replication” (Scientific Reports, 2016)
